{"source": "the NIST ThermoML archive (doi:10.1016/j.fluid.2008.06.022)", "conditions": "Liquid", "note": "Numbers after ± are expanded uncertainties."}
{"smiles": "CCCOCC(C)O", "note": "(centres undefined) [1-propoxy-2-propanol]", "values": [{"measurement": "vapor or sublimation pressure", "setting": "298.15 K", "value": "0.341 ± 0.016", "unit": "kPa"}, {"measurement": "vapor or sublimation pressure", "setting": "303.15 K", "value": "0.481 ± 0.016", "unit": "kPa"}, {"measurement": "vapor or sublimation pressure", "setting": "308.15 K", "value": "0.672 ± 0.016", "unit": "kPa"}, {"measurement": "vapor or sublimation pressure", "setting": "313.15 K", "value": "0.937 ± 0.016", "unit": "kPa"}, {"measurement": "vapor or sublimation pressure", "setting": "318.15 K", "value": "1.271 ± 0.018", "unit": "kPa"}, {"measurement": "vapor or sublimation pressure", "setting": "323.15 K", "value": "1.707 ± 0.02", "unit": "kPa"}, {"measurement": "vapor or sublimation pressure", "setting": "328.15 K", "value": "2.256 ± 0.023", "unit": "kPa"}, {"measurement": "vapor or sublimation pressure", "setting": "333.15 K", "value": "2.967 ± 0.028", "unit": "kPa"}, {"measurement": "vapor or sublimation pressure", "setting": "338.15 K", "value": "3.839 ± 0.034", "unit": "kPa"}, {"measurement": "vapor or sublimation pressure", "setting": "343.15 K", "value": "4.951 ± 0.043", "unit": "kPa"}, {"measurement": "vapor or sublimation pressure", "setting": "348.15 K", "value": "6.29 ± 0.053", "unit": "kPa"}, {"measurement": "vapor or sublimation pressure", "setting": "353.15 K", "value": "7.963 ± 0.066", "unit": "kPa"}, {"measurement": "vapor or sublimation pressure", "setting": "358.15 K", "value": "9.95 ± 0.082", "unit": "kPa"}, {"measurement": "vapor or sublimation pressure", "setting": "363.15 K", "value": "12.38 ± 0.1", "unit": "kPa"}, {"measurement": "vapor or sublimation pressure", "setting": "368.15 K", "value": "15.27 ± 0.12", "unit": "kPa"}, {"measurement": "vapor or sublimation pressure", "setting": "373.15 K", "value": "18.7 ± 0.15", "unit": "kPa"}, {"measurement": "vapor or sublimation pressure", "setting": "378.15 K", "value": "22.65 ± 0.18", "unit": "kPa"}, {"measurement": "vapor or sublimation pressure", "setting": "383.15 K", "value": "27.42 ± 0.22", "unit": "kPa"}, {"measurement": "vapor or sublimation pressure", "setting": "388.15 K", "value": "32.8 ± 0.27", "unit": "kPa"}, {"measurement": "vapor or sublimation pressure", "setting": "393.15 K", "value": "39.18 ± 0.32", "unit": "kPa"}, {"measurement": "vapor or sublimation pressure", "setting": "398.15 K", "value": "46.38 ± 0.38", "unit": "kPa"}, {"measurement": "vapor or sublimation pressure", "setting": "403.15 K", "value": "54.75 ± 0.44", "unit": "kPa"}, {"measurement": "vapor or sublimation pressure", "setting": "408.15 K", "value": "64.1 ± 0.52", "unit": "kPa"}, {"measurement": "vapor or sublimation pressure", "setting": "413.15 K", "value": "74.98 ± 0.61", "unit": "kPa"}]}
